Experimental data as given in patent publication US12533339B2, “Small molecule antiviral drug treatment for human papillomavirus infections” (THE TRUSTEES OF INDIANA UNIVERSITY, priority 2020, dated 2026).
Where two headings read alike, the source gives them in different places.

Legend:
[1] = target: T1, E6 WT/E6AP (Human papillomavirus type 16, UniProt P03126); assay: biochemical; type: binding; conditions: WT 16E6; for inhibition at 10 µM: 10 μM compound; for inhibition at 100 µM: 100 μM compound
[2] = target: T2, E6C51S/E6AP (Human papillomavirus type 16, UniProt P03126, C58S); assay: E6/E6AP binding assay (amylose-bound MBP-16E6, E6AP-BAP activity), C51S 16E6; design: species or system HPV-16; conditions: for % Inhibition @ 10 μM E6C51S/E6AP: 10 μM compound; for % Inhibition @ 100 μM E6C51S/E6AP: 100 μM compound
[3] = target: T1, E6 WT/E6AP; assay: biochemical; type: binding; conditions: at 24 h; for IC50: 2 μM E6 WT pre-incubated with compound; for Emax: E6 WT, read-out: BLI maximal Inhibition (max %) E6 WT/E6AP
[4] = target: T1, E6 WT/E6AP; assay: biochemical; type: binding; conditions: for Emax: 24 h, read-out: FP maximal inhibition (max %) E6 WT/E6AP; for IC50: FP IC50 at 24 h (μM) E6 WT/E6AP
[5] = target: T2, E6C51S/E6AP; assay: BLI binding assay, E6 C51S binding to captured E6AP; design: species or system HPV-16; conditions: for BLI maximal Inhibition (max %) E6C51S/E6AP: at 24 h, E6 C51S

T2 sequence (P03126 whole entry C58S, looked up): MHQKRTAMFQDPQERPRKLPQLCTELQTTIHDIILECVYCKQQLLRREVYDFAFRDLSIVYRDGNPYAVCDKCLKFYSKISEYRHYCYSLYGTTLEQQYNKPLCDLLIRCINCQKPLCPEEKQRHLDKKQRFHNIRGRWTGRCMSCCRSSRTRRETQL
T1 sequence (P03126 8-158): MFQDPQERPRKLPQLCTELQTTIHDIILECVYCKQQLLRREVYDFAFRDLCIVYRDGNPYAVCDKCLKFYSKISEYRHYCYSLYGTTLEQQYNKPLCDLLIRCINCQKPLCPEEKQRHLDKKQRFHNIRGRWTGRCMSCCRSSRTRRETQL

C=CC(=O)N1CCN(c2nc(CCc3cccc(OC)c3)nc3sc4c(c23)CCCC4)CC1 [EIN-143, 1-(4-(2-(3-methoxyphenethyl)-5,6,7,8-tetrahydrobenzo[4,5]thieno[2,3-d]pyrimidin-4-yl)piperazin-1-yl)prop-2-en-1-one]
inhibition at 10 µM [1]: 44 ± 9% | inhibition at 100 µM [1]: 78 ± 3% | % Inhibition @ 10 μM E6C51S/E6AP [2]: 19 ± 7% | % Inhibition @ 100 μM E6C51S/E6AP [2]: 23 ± 10% | IC50 [3]: 2.5 ± 0.5 µM | Emax [3]: 100% | FP maximal inhibition (max %) E6 WT/E6AP ([4]; at 24 h): (max 93%)

C=CC(=O)N1CCN(c2nc(CCc3cccc(OC)c3)nc3ccccc23)CC1 [EIN-154, 1-(4-(2-(3-methoxyphenethyl)quinazolin-4-yl)piperazin-1-yl)prop-2-en-1-one]
BLI maximal Inhibition (max %) E6C51S/E6AP [5]: (max 75%) | Emax [3]: 100% | Emax [4]: 93%

C=CC(=O)N1CCN(c2nc(CCc3cccc(F)c3)nc3sc4c(c23)CCCC4)CC1 [EIN-137, 1-(4-(2-(3-fluorophenethyl)-5,6,7,8-tetrahydrobenzo[4,5]thieno[2,3-d]pyrimidin-4-yl)piperazin-1-yl)prop-2-en-1-one]
inhibition at 10 µM [1]: 35 ± 4% | inhibition at 100 µM [1]: 56 ± 4% | % Inhibition @ 10 μM E6C51S/E6AP [2]: 15 ± 3% | % Inhibition @ 100 μM E6C51S/E6AP [2]: 16 ± 5% | IC50 [3]: 4.9 ± 0.6 µM | Emax [3]: 90%

COc1cccc(CCc2nc(N3CCN(C(=O)/C=C/CN(C)C)CC3)c3c4c(sc3n2)CCCC4)c1 [EIN-148, (E)-4-(dimethylamino)-1-(4-(2-(3-methoxyphenethyl)-5,6,7,8-tetrahydrobenzo[4,5]thieno[2,3-d]pyrimidin-4-yl)piperazin-1-yl)but-2-en-1-one]
IC50 [3]: 3.3 ± 0.3 µM | Emax [3]: 100% | Emax [4]: 100% | IC50 [4]: 20.4 ± 3 µM

C=CC(=O)N1CCN(c2nc(NCc3ccccc3)nc3sc4c(c23)CCCC4)CC1 [EIN-134, 1-(4-(2-(benzylamino)-5,6,7,8-tetrahydrobenzo[4,5]thieno[2,3-d]pyrimidin-4-yl)piperazin-1-yl)prop-2-en-1-one]
inhibition at 10 µM [1]: 18 ± 6% | inhibition at 100 µM [1]: 35 ± 4% | % Inhibition @ 10 μM E6C51S/E6AP [2]: 0% | % Inhibition @ 100 μM E6C51S/E6AP [2]: 0% | IC50 [3]: 32.6 ± 19.2 µM | Emax [3]: 100% | Emax [4]: 11% | IC50 [4]: 12.1 ± 0.7 µM

C=CC(=O)N1CCN(c2nc(CCc3ccccc3F)nc3sc4c(c23)CCCC4)CC1 [EIN-138, 1-(4-(2-(2-fluorophenethyl)-5,6,7,8-tetrahydrobenzo[4,5]thieno[2,3-d]pyrimidin-4-yl)piperazin-1-yl)prop-2-en-1-one]
inhibition at 10 µM [1]: 20 ± 6% | inhibition at 100 µM [1]: 57 ± 3% | % Inhibition @ 10 μM E6C51S/E6AP [2]: 16 ± 6% | % Inhibition @ 100 μM E6C51S/E6AP [2]: 19 ± 7% | IC50 [3]: 4.1 ± 0.5 µM | Emax [3]: 90%

C=CC(=O)N1CCN(c2nc(CCc3ccc(F)cc3)nc3sc4c(c23)CCCC4)CC1 [EIN-136, 1-(4-(2-(4-fluorophenethyl)-5,6,7,8-tetrahydrobenzo[4,5]thieno[2,3-d]pyrimidin-4-yl)piperazin-1-yl)prop-2-en-1-one]
inhibition at 10 µM [1]: 41 ± 7% | inhibition at 100 µM [1]: 69 ± 2% | IC50 [3]: 2.7 ± 0.3 µM | Emax [3]: 100% | Emax [4]: 55% | IC50 [4]: 12 ± 0.9 µM

C=CC(=O)N1CCCN(C(=O)CN2CCc3sccc3C2c2ccccc2C)CC1 (centres unmarked) [EIN-122, 1-(4-(2-(4-(o-tolyl)-6,7-dihydrothieno[3,2-c]pyridin-5(4H)-yl)acetyl)-1,4-diazepan-1-yl)prop-2-en-1-one]
loss of ability to inhibit mutant form E6-Cys51Ser (BLI), in words ([5]; FIG. 1B, E6-Cys51Ser): nearly completely lost | inhibition at 10 µM [1]: 0% | inhibition at 100 µM [1]: 97 ± 1% | IC50 [3]: 62.7 ± 12.1 µM | Emax [3]: 100%

C=CC(=O)N1CCN(c2nc(Cc3ccccc3)nc3ccccc23)CC1 [EIN-156, 1-(4-(2-benzylquinazolin-4-yl)piperazin-1-yl)prop-2-en-1-one]
BLI maximal Inhibition (max %) E6C51S/E6AP [5]: (max 100%) | Emax [3]: 100%

C=CC(=O)N1CCN(c2nc(CCc3ccccc3)nc3sc4c(c23)CCCC4)CC1 [EIN-132, 1-(4-(2-phenethyl-5,6,7,8-tetrahydrobenzo[4,5]thieno[2,3-d]pyrimidin-4-yl)piperazin-1-yl)prop-2-en-1-one]
BLI maximal Inhibition (max %) E6C51S/E6AP [5]: (max 100%) | inhibition at 10 µM [1]: 3.5 ± 2% | inhibition at 100 µM [1]: 61 ± 2% | % Inhibition @ 10 μM E6C51S/E6AP [2]: 0% | % Inhibition @ 100 μM E6C51S/E6AP [2]: 19 ± 5% | Emax [3]: 100%

O=C(CCl)N1CCN(c2nc(CCc3ccccc3)nc3sc4c(c23)CCCC4)CC1 [EIN-125, 2-chloro-1-(4-(2-phenethyl-5,6,7,8-tetrahydrobenzo[4,5]thieno[2,3-d]pyrimidin-4-yl)piperazin-1-yl)ethan-1-one]
BLI maximal Inhibition (max %) E6C51S/E6AP [5]: (max 100%) | inhibition at 10 µM [1]: 54 ± 13% | inhibition at 100 µM [1]: 102 ± 10% | % Inhibition @ 10 μM E6C51S/E6AP [2]: 32 ± 11% | % Inhibition @ 100 μM E6C51S/E6AP [2]: 62 ± 1% | Emax [3]: 100%

C=CC(=O)N1CCN(c2nc(-c3ccccc3)nc3ccccc23)CC1 [EIN-157, 1-(4-(2-phenylquinazolin-4-yl)piperazin-1-yl)prop-2-en-1-one]
BLI maximal Inhibition (max %) E6C51S/E6AP [5]: (max 100%) | Emax [3]: 100%

C=CC(=O)N1CCN(c2nc(-c3ccccc3)nc3sc4c(c23)CCCC4)CC1 [EIN-133, 1-(4-(2-phenyl-5,6,7,8-tetrahydrobenzo[4,5]thieno[2,3-d]pyrimidin-4-yl)piperazin-1-yl)prop-2-en-1-one]
inhibition at 10 µM [1]: 26 ± 7% | inhibition at 100 µM [1]: 41 ± 5% | % Inhibition @ 10 μM E6C51S/E6AP [2]: 0% | % Inhibition @ 100 μM E6C51S/E6AP [2]: 0% | IC50 [3]: 14.9 ± 6.6 µM | Emax [3]: 60% | Emax [4]: 9% | IC50 [4]: 10.4 ± 0.7 µM

C=CC(=O)N1CCN(c2nc(CCc3ccc(OC)cc3)nc3sc4c(c23)CCCC4)CC1 [EIN-144, 1-(4-(2-(4-methoxyphenethyl)-5,6,7,8-tetrahydrobenzo[4,5]thieno[2,3-d]pyrimidin-4-yl)piperazin-1-yl)prop-2-en-1-one]
inhibition at 10 µM [1]: 12 ± 6% | inhibition at 100 µM [1]: 45 ± 4% | % Inhibition @ 10 μM E6C51S/E6AP [2]: 9 ± 9% | % Inhibition @ 100 μM E6C51S/E6AP [2]: 17 ± 5% | IC50 [3]: 1.6 ± 0.5 µM | Emax [3]: 62% | Emax [4]: 63% | IC50 [4]: 14.8 ± 1.2 µM

CC#CC(=O)N1CCN(c2nc(CCc3cccc(OC)c3)nc3sc4c(c23)CCCC4)CC1 [EIN-147, 1-(4-(2-(3-methoxyphenethyl)-5,6,7,8-tetrahydrobenzo[4,5]thieno[2,3-d]pyrimidin-4-yl)piperazin-1-yl)but-2-yn-1-one]
BLI maximal Inhibition (max %) E6C51S/E6AP [5]: (max 100%) | Emax [3]: 100%

C=CC(=O)N1CCN(c2nc(Cc3ccccc3)nc3sc4c(c23)CCCC4)CC1 [EIN-135, 1-(4-(2-benzyl-5,6,7,8-tetrahydrobenzo[4,5]thieno[2,3-d]pyrimidin-4-yl)piperazin-1-yl)prop-2-en-1-one]
inhibition at 10 µM [1]: 0% | inhibition at 100 µM [1]: 52 ± 5% | % Inhibition @ 10 μM E6C51S/E6AP [2]: 12 ± 3% | % Inhibition @ 100 μM E6C51S/E6AP [2]: 25 ± 4% | IC50 [3]: 10.9 ± 3.4 µM | Emax [3]: 85% | Emax [4]: 27% | IC50 [4]: 15.4 ± 0.4 µM

C=CC(=O)N1CCN(c2nc(CCc3ccccc3OC)nc3sc4c(c23)CCCC4)CC1 [EIN-145, 1-(4-(2-(2-methoxyphenethyl)-5,6,7,8-tetrahydrobenzo[4,5]thieno[2,3-d]pyrimidin-4-yl)piperazin-1-yl)prop-2-en-1-one]
inhibition at 10 µM [1]: 32 ± 4% | inhibition at 100 µM [1]: 51 ± 2% | % Inhibition @ 10 μM E6C51S/E6AP [2]: 20 ± 6% | % Inhibition @ 100 μM E6C51S/E6AP [2]: 23 ± 7% | IC50 [3]: 2 ± 0.9 µM | Emax [3]: 65% | Emax [4]: 59% | IC50 [4]: 15 ± 1.2 µM
